EC50, inhibition and mortality data for 19 compounds are collected here from patent US11485733B2, “Azaquinoline derivatives” (BAYER ANIMAL HEALTH GMBH, priority 2017, dated 2022).

The structures appear in SMILES notation.

As a reminder, the EC50 is the concentration needed to bring the measured effect to its halfway point. Usually mortality stands for the percentage killed.

The subject of experiment [1] is Dirofilaria immitis microfilariae. Kind of experiment: Dirofilaria immitis microfilariae (DIROIM L1) motility. The settings on record: 72 h, read-out: EC50 (reduction of motility).
The target of a further experiment is C. elegans Slo-1a (Caenorhabditis elegans, UniProt Q95V25). The settings on record: pE50 (negative decadic logarithm of EC50), CHO cells expressing C. elegans Slo-1a; voltage sensitive dye, 70 mM KCl.
For a further experiment, the target named is D. immitis Slo-1 (Dirofilaria immitis, UniProt I0DFK5). Kind of experiment: D. immitis Slo-1, action at a recombinant CHO cell line (membrane potential, FLIPR). Format: cell-based.
For a further experiment, the system named is Dirofilaria immitis. Kind of experiment: Dirofilaria immitis (DIROIM L4) larval motility. The settings on record: 72 h, read-out: EC50 (reduction of motility).
The subject of experiment [2] is Nippostrongylus brasiliensis. Kind of experiment: Nippostrongylus brasiliensis (NIPOBR) adult worms, acetylcholine esterase readout. The settings on record: read-out: activity (reduction of AChE compared to negative control); for inhibition at 1 µg/mL: at 1 μg/ml (1 ppm); for inhibition at 10 µg/mL: at 10 μg/ml (10 ppm). The protocol: In Vitro Assay 3: Nippostrongylus brasiliensis (NIPOBR)
Adult Nippostrongylus brasiliensis were washed with saline buffer containing 100 U/ml penicillin, 0.1 mg/ml streptomycin and 2.5 μg/ml amphotericin B. Test compounds were dissolved in DMSO and worms were incubated in medium in a final concentration of 10 μg/ml (10 ppm) respectively 1 μg/ml (1 ppm). An aliquot of the medium was used to determine the acetylcholine esterase activity in comparison to a negative control. The principle of measuring acetylcholine esterase as readout for anthelmintic activity was described in Rapson et al (1986) and Rapson et al (1987).

The test system of another experiment is Cooperia curticei. As to the kind of experiment: Cooperia curticei larval mortality. The note with it: 120 h, read-out: activity (percentage of larval mortality).
Another experiment deals with Haemonchus contortus. As to the kind of experiment: Haemonchus contortus larval mortality. The note with it: 120 h, read-out: activity (percentage of larval mortality).

Chain of D. immitis Slo-1 (I0DFK5 1-1119): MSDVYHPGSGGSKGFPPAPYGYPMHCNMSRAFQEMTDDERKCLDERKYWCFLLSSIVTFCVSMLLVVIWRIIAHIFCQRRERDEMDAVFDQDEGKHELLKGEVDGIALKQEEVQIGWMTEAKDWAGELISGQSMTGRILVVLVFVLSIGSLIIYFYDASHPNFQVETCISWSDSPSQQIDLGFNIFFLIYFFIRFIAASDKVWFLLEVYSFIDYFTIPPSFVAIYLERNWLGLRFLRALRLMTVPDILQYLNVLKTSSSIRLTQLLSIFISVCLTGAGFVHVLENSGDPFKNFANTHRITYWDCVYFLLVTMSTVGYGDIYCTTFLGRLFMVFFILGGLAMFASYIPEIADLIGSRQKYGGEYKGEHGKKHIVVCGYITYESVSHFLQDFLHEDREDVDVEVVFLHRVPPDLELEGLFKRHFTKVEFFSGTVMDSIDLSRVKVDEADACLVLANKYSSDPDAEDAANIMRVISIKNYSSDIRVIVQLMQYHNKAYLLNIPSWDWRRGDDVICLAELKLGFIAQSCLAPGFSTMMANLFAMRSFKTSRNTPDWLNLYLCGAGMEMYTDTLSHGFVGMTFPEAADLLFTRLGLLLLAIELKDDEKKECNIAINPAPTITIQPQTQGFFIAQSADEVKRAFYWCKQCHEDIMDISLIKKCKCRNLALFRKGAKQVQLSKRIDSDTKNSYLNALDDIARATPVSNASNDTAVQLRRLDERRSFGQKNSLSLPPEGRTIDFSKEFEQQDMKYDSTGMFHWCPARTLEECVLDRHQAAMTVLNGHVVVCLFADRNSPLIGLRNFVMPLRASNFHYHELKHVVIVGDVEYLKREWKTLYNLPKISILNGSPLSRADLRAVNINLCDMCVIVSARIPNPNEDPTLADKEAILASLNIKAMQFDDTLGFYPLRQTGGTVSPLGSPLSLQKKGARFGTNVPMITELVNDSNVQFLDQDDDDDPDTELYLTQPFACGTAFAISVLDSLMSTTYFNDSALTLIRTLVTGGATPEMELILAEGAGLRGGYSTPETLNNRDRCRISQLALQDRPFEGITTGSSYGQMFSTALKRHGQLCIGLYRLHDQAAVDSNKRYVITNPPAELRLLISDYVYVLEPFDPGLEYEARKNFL
Chain of C. elegans Slo-1a (Q95V25 whole entry): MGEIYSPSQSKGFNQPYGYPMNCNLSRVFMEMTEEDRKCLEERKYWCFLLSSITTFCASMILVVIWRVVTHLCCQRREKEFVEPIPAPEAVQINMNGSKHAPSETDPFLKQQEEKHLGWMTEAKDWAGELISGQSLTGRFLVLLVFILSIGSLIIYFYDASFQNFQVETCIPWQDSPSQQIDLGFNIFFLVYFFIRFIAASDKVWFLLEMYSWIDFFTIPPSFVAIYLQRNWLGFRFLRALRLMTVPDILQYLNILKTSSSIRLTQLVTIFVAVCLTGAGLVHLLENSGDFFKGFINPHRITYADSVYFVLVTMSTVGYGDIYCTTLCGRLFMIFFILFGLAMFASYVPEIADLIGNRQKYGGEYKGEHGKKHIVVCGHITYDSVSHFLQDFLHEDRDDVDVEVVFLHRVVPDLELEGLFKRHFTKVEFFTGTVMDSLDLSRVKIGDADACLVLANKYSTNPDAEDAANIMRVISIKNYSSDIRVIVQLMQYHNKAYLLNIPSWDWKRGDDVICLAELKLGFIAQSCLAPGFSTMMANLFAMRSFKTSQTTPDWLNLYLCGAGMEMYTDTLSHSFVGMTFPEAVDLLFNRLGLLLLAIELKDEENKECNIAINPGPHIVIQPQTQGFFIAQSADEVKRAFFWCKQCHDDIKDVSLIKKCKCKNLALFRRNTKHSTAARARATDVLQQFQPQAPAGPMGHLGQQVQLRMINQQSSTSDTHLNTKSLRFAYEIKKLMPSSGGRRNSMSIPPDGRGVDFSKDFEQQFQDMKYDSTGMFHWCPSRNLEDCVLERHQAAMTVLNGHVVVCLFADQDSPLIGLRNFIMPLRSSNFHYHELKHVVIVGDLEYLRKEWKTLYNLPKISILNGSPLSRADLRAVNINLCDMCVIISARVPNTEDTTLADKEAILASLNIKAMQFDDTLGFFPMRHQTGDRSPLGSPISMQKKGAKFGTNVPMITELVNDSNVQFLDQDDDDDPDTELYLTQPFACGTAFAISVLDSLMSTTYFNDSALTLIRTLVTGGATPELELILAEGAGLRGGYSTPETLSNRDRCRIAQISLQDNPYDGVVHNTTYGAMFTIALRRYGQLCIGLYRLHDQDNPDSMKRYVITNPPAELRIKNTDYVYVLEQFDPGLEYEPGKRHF
Experimental for C. elegans Slo-1a: Generation of a Stable C. elegans CHO Cell Line
A CHO cell line was obtained from ATCC, code ATCC CRL-9096. […] The transfection solution included 300 μL OptiMEM (Life Technologies, Nr.: 31985), 2 μL (=6 μg) of plasmid DNA containing the C. elegans Slo 1a gene and 9 μL FugeneHD (Promega, Nr.: E2311), and was added to the cells prior to incubation for 48 hours at 37° C., 5% CO2. The transfection medium was exchanged for the selection medium which contains additional G418 (2 mg/ml, Invitrogen, Nr.: 10131) and the cells were seeded into 384 well plates (300 cells/well). After a few weeks, the remaining surviving cells were tested with a voltage sensitive dye (Membrane Potential Assay Kit, Molecular Devices Nr.: R8034) for K+ channel expression. Positive cell clones were purified by the limited dilution technique. For this the clone with the highest and most robust signal in the voltage sensitive dye assay was further subcloned (incubated) in 384 well plates (0.7 cells/well) in order to obtain clonal purity. This generated a final stable CHO cell line expressing the C. elegans Slo-1a.
Cells were cultured at 37° C. and 5% CO2 in MEMalpha with Gutamax I (Invitrogen, Nr.: 32571), supplemented with 10% (v/v) heat inactivated fetal bovine serum (Invitrogen, Nr.: 10500), G418 (1 mg/ml, Invitrogen, Nr.: 10131). Cells were detached using Accutase (Sigma, Nr.: A6964).
Membrane Potential Measurements
Laboratory compound testing was performed on 384-well microtiter plates (MTPs, Greiner, Nr.: 781092). 8000 cells/well were plated onto 384-well MTPs and cultured for 20 to 24 hours at 37° C. and 5% CO2. After removal of the cell culture medium, the cells were washed once with tyrode (150 mM NaCl, 0.3 mM KCl, 2 mM CaCl2, 1 mM MgCl2, 0.8 mM NaH2PO4, 5 mM Glucose, 28 mM Hepes, pH 7.4) and then loaded with the voltage sensitive dye of the Membrane Potential Assay Kit diluted in tyrode for 1 h at room temperature.
After starting the measurement of fluorescence using a FLIPR Tetra (Molecular Devices, Exc. 510-545 nm, Emm. 565-625 nm), test compounds were added followed by the addition of KCl tyrode (final assay concentration: 70 mM KCl, 2 mM CaCl2, 1 mM MgCl2, 0.8 mM NaH2PO4, 5 mM Glucose, 28 mM Hepes, pH 7.4, including the voltage sensitive dye). The measurement was completed after 7 minutes.
The data were evaluated by using the ActivityBase XLfit software (IDBS) for curve fitting and calculation of the half-maximal effective concentration (EC50) and are reported as negative decadic logarithm (pE50).
Experimental for Cooperia curticei: In Vitro Assay 6: Cooperia curticei
Solvent: Dimethyl Sulfoxide
Approximately 40 nematode larvae (Cooperia curticei) are transferred into a test tube containing the compound solution.
After 5 days percentage of larval mortality is recorded. 100% efficacy means all larvae are killed; 0% efficacy means no larvae are killed.
Experimental for Haemonchus contortus: In Vitro Assay 7: Haemonchus contortus
Solvent: Dimethyl Sulfoxide
Approximately 40 larvae of the red stomach worm (Haemonchus contortus) are transferred into a test tube containing compound solution.
After 5 days the percentage of larval mortality is recorded. 100% efficacy means all larvae are killed, 0% efficacy means no larvae are killed.

In the case of `O=C(N[C@H]1CCOc2ccccc21)c1cnc2c(-c3cccc(Cl)c3Cl)ncc(F)c2c1N1CCOCC1` [Example T1-7, 8-(2,3-dichlorophenyl)-N-[(4S)-3,4-dihydro-2H-1-benzopyran-4-yl]-5-fluoro-4-(morpholin-4-yl)-1,7-naphthyridine-3-carboxamide], the EC50 was less than 0.1 µg/mL in experiment [1], less than 3.16 nM at C. elegans Slo-1a, 3.16 to 31.6 nM on D. immitis Slo-1 and less than 0.1 µg/mL with Dirofilaria immitis. Also, the inhibition at 1 µg/mL in experiment [2] is greater than 80%. Besides, the inhibition at 10 µg/mL in experiment [2] was greater than 80%.

`COc1cnc(-c2cc(F)cc(F)c2F)c2ncc(C(=O)N[C@H]3CCOc4ccccc43)c(N3CCOCC3)c12` [Example T1-9, N-[(4S)-3,4-dihydro-2H-1-benzopyran-4-yl]-5-methoxy-4-(morpholin-4-yl)-8-(2,3,5-trifluorophenyl)-1,7-naphthyridine-3-carboxamide]: the EC50 on C. elegans Slo-1a is 3.16 to 31.6 nM; on D. immitis Slo-1, 31.6 to 316 nM; with Dirofilaria immitis, less than 0.1 µg/mL. Moreover, the inhibition at 1 µg/mL in experiment [2] is greater than 80%. Besides, the inhibition at 10 µg/mL in experiment [2] is greater than 80%.

As to `COc1cnc(-c2cccc(Cl)c2Cl)c2ncc(C(=O)N[C@H]3CCOc4ccccc43)c(N(C)C)c12` [Example T1-11, 8-(2,3-dichlorophenyl)-N-[(4S)-3,4-dihydro-2H-1-benzopyran-4-yl]-4-(dimethylamino)-5-methoxy-1,7-naphthyridine-3-carboxamide], the EC50 in experiment [1] was less than 0.1 µg/mL; on C. elegans Slo-1a, 3.16 to 31.6 nM; on D. immitis Slo-1, 31.6 to 316 nM; in the experiment on Dirofilaria immitis, less than 0.1 µg/mL. Also, the inhibition at 1 µg/mL in experiment [2] is greater than 80%. Also, the inhibition at 10 µg/mL in experiment [2] was greater than 80%.

As for `COc1cnc(-c2cccc(Cl)c2Cl)c2ncc(C(=O)N[C@H]3CCOc4ccccc43)c(N3CCOCC3)c12` [Example T1-14, 8-(2,3-dichlorophenyl)-N-[(4S)-3,4-dihydro-2H-1-benzopyran-4-yl]-5-methoxy-4-(morpholin-4-yl)-1,7-naphthyridine-3-carboxamide], the EC50 in experiment [1] is less than 0.1 µg/mL; on C. elegans Slo-1a, 3.16 to 31.6 nM; at D. immitis Slo-1 it was 31.6 to 316 nM; in the experiment on Dirofilaria immitis, less than 0.1 µg/mL. The inhibition at 1 µg/mL in experiment [2] was greater than 80%. In experiment [2], the inhibition at 10 µg/mL was greater than 80%.

`O=C(N[C@H]1CCOc2ccccc21)c1cnc2c(-c3cccc(Cl)c3Cl)nccc2c1` [Example T1-15, 8-(2,3-dichlorophenyl)-N-[(4S)-3,4-dihydro-2H-chromen-4-yl]-1,7-naphthyridine-3-carboxamide]: on C. elegans Slo-1a, the EC50 lay within 31.6 to 316 nM.

On to `CN(C)c1c(C(=O)N[C@H]2CCOc3ccccc32)cnc2c(-c3cccc(Cl)c3Cl)cncc12` [Example T2-2, 8-(2,3-Dichlorophenyl)-N-[(4S)-3,4-dihydro-2H-chromen-4-yl]-4-(dimethylamino)-1,6-naphthyridine-3-carboxamide], for which the values for the EC50 (in experiment [1]; at C. elegans Slo-1a) were less than 0.1 µg/mL and 3.16 to 31.6 nM, respectively. In experiment [2], the inhibition at 10 µg/mL was greater than 80%.

In the case of `O=C(N[C@H]1CCOc2ccccc21)c1cnc2c(-c3cc(Cl)cc(Cl)c3)cncc2c1N1CCOCC1` [Example T2-4, 8-(3,5-Dichlorophenyl)-N-[(4S)-3,4-dihydro-2H-chromen-4-yl]-4-(morpholin-4-yl)-1,6-naphthyridine-3-carboxamide], the EC50 in experiment [1] was less than 0.1 µg/mL; on C. elegans Slo-1a it was 3.16 to 31.6 nM; at D. immitis Slo-1 it was 31.6 to 316 nM; with Dirofilaria immitis, less than 0.1 µg/mL. For the same compound, in experiment [2], the inhibition at 1 µg/mL is greater than 80%.

As to `COc1ncc(-c2cccc(Cl)c2Cl)c2ncc(C(=O)N[C@H]3CCOc4ccccc43)c(N3CCOCC3)c12` [Example T2-11, 8-(2,3-dichlorophenyl)-N-[(4S)-3,4-dihydro-2H-1-benzopyran-4-yl]-5-methoxy-4-(morpholin-4-yl)-1,6-naphthyridine-3-carboxamide], the EC50 in experiment [1] was less than 0.1 µg/mL; on C. elegans Slo-1a, less than 3.16 nM; at D. immitis Slo-1, 31.6 to 316 nM; in the experiment on Dirofilaria immitis it was less than 0.1 µg/mL. In addition, the inhibition at 1 µg/mL in experiment [2] is greater than 80%. The inhibition at 10 µg/mL in experiment [2] is greater than 80%.

Consider `CN(C)c1c(C(=O)N[C@H]2CCOc3ccccc32)cnc2c(-c3cc(Cl)cc(Cl)c3)ncnc12` [Example T4-1, 4-(3,5-Dichlorophenyl)-N-[(4S)-3,4-dihydro-2H-chromen-4-yl]-8-(dimethylamino)-pyrido[3,2-d]pyrimidine-7-carboxamide], for which the mortality at 20 ppm in the experiment on Cooperia curticei amounted to 80%. Further, the EC50 in experiment [1] is less than 0.1 µg/mL; at C. elegans Slo-1a it was 3.16 to 31.6 nM; on D. immitis Slo-1 it was 31.6 to 316 nM; in the experiment with Dirofilaria immitis it was less than 0.1 µg/mL. The inhibition at 1 µg/mL in experiment [2] was greater than 80%. In addition, in experiment [2], the inhibition at 10 µg/mL is greater than 80%.

With `O=C(N[C@H]1CCOc2ccccc21)c1cnc2c(-c3cc(Cl)cc(Cl)c3)ncnc2c1N1CCOCC1` [Example T4-2, 4-(3,5-Dichlorophenyl)-N-[(4S)-3,4-dihydro-2H-chromen-4-yl]-8-(morpholin-4-yl)pyrido[3,2-d]pyrimidine-7-carboxamide], the EC50 in experiment [1] is less than 0.1 µg/mL; at C. elegans Slo-1a, 3.16 to 31.6 nM; at D. immitis Slo-1, 31.6 to 316 nM; in the experiment on Dirofilaria immitis, less than 0.1 µg/mL. Besides, the inhibition at 1 µg/mL in experiment [2] was greater than 80%. In experiment [2], the inhibition at 10 µg/mL is greater than 80%.

Take `CN(C)c1c(C(=O)N[C@H]2CCOc3ccccc32)nnc2c(-c3cc(Cl)cc(Cl)c3)cccc12` [Example T5-1, 8-(3,5-Dichlorophenyl)-N-[(4S)-3,4-dihydro-2H-chromen-4-yl]-4-(dimethylamino)cinnoline-3-carboxamide]: the EC50 in experiment [1] is less than 0.1 µg/mL; on C. elegans Slo-1a, less than 3.16 nM; on D. immitis Slo-1, 31.6 to 316 nM; in the experiment with Dirofilaria immitis, less than 0.1 µg/mL. Also, the inhibition at 1 µg/mL in experiment [2] is greater than 80%.

Take `CN(C)c1c(C(=O)N[C@H]2CCOc3ccccc32)nnc2c(-c3cccc(Cl)c3)cccc12` [Example T5-2, 8-(3-Chlorophenyl)-N-[(4S)-3,4-dihydro-2H-chromen-4-yl]-4-(dimethylamino)cinnoline-3-carboxamide]: the mortality at 20 ppm with Haemonchus contortus and in the experiment with Cooperia curticei was 80% each time. The EC50 in experiment [1] was less than 0.1 µg/mL; at C. elegans Slo-1a it was 3.16 to 31.6 nM; at D. immitis Slo-1, 31.6 to 316 nM.

As to `CN(C)c1c(C(=O)N[C@H]2CCOc3ccccc32)nnc2c(-c3cccc(Cl)c3Cl)cccc12` [Example T5-3, 8-(2,3-Dichlorophenyl)-N-[(4S)-3,4-dihydro-2H-chromen-4-yl]-4-(dimethylamino)cinnoline-3-carboxamide], in the experiment with Cooperia curticei, the mortality at 20 ppm was 80%. Also, the EC50 in experiment [1] is less than 0.1 µg/mL; at C. elegans Slo-1a, less than 3.16 nM; at D. immitis Slo-1 it was 3.16 to 31.6 nM; in the experiment on Dirofilaria immitis, less than 0.1 µg/mL. The inhibition at 1 µg/mL in experiment [2] was greater than 80%.

Take `CN(C)c1c(C(=O)N[C@H]2CCOc3ccccc32)nnc2c(-c3ccc(F)c(F)c3)cccc12` [Example T5-4, 8-(3,4-Difluorophenyl)-N-[(4S)-3,4-dihydro-2H-chromen-4-yl]-4-(dimethylamino)cinnoline-3-carboxamide]: the EC50 was less than 0.1 µg/mL in experiment [1], 31.6 to 316 nM at C. elegans Slo-1a and 31.6 to 316 nM at D. immitis Slo-1.

Turning to `COc1c(C(=O)N[C@H]2CCOc3ccccc32)nnc2c(-c3cccc(Cl)c3)cccc12` [Example T5-6, 8-(3-Chlorophenyl)-N-[(4S)-3,4-dihydro-2H-chromen-4-yl]-4-methoxycinnoline-3-carboxamide], the mortality at 20 ppm with Cooperia curticei was 80%. Also, the figures for the EC50 (in experiment [1]; on C. elegans Slo-1a; at D. immitis Slo-1) were less than 0.1 µg/mL, 3.16 to 31.6 nM and 31.6 to 316 nM, respectively.

With `COc1c(C(=O)N[C@H]2CCOc3ccccc32)nnc2c(-c3ccc(F)c(F)c3)cccc12` [Example T5-8, 8-(3,4-Difluorophenyl)-N-[(4S)-3,4-dihydro-2H-chromen-4-yl]-4-methoxycinnoline-3-carboxamide], the EC50 was less than 0.1 µg/mL in experiment [1], 3.16 to 31.6 nM on C. elegans Slo-1a and 31.6 to 316 nM at D. immitis Slo-1.

As for `O=C(N[C@H]1CCOc2ccccc21)c1cnc2c(-c3cccc(Cl)c3Cl)cnnc2c1N1CCOCC1` [Example T6-2, 4-(2,3-Dichlorophenyl)-N-[(4S)-3,4-dihydro-2H-chromen-4-yl]-8-(morpholin-4-yl)pyrido[3,2-c]pyridazine-7-carboxamide], in the experiment with Cooperia curticei, the mortality at 20 ppm is 90%. The EC50 in experiment [1] was less than 0.1 µg/mL; at C. elegans Slo-1a it was 31.6 to 316 nM. In addition, in experiment [2], the inhibition at 1 µg/mL was greater than 80%.

On to `CN(C)c1c(C(=O)N[C@H]2CCOc3ccccc32)cnc2c(-c3cc(Cl)cc(Cl)c3)cnnc12` [Example T6-3, 4-(3,5-Dichlorophenyl)-N-[(4S)-3,4-dihydro-2H-chromen-4-yl]-8-(dimethylamino)pyrido[3,2-c]pyridazine-7-carboxamide], for which the mortality at 20 ppm in the experiment on Haemonchus contortus is 90%. Further, the EC50 in experiment [1] was less than 0.1 µg/mL; on C. elegans Slo-1a, 3.16 to 31.6 nM; on D. immitis Slo-1, 31.6 to 316 nM; in the experiment on Dirofilaria immitis, less than 0.1 µg/mL. In addition, in experiment [2], the inhibition at 1 µg/mL is greater than 80%.

With `O=C(N[C@H]1CCOc2ccccc21)c1cnc2c(-c3cc(Cl)cc(Cl)c3)cnnc2c1N1CCOCC1` [Example T6-4, 4-(3,5-Dichlorophenyl)-N-[(4S)-3,4-dihydro-2H-chromen-4-yl]-8-(morpholin-4-yl)pyrido[3,2-c]pyridazine-7-carboxamide], the results for the mortality at 20 ppm in the experiment on Haemonchus contortus and in the experiment on Cooperia curticei were 80% and 90%, respectively. Further, the EC50 at C. elegans Slo-1a and at D. immitis Slo-1 was 31.6 to 316 nM in each case.
